The source of these data is patent publication US4213984A, “11-(Piperazino-acetyl)-5,11-di hydro-6H-pyrido[2,3-b][1,4]benzodiazepin-6-ones and salts thereof” (Boehringer Ingelheim GmbH, priority 1977, dated 1980).

One series concerns guinea pig colon. As to the kind of experiment: spasmolytic effect in vitro on the guinea pig colon, acetylcholine-induced spasms, compared with atropinesulfate. The note with it: acetylcholine spasm, relative to Atropine = 1. Here is the method: (§1) The compounds were examined with regard to their inhibiting effect on the formation of stress ulcers in rats and their spasmolytic effect, related to atropine, with consideration of their acute toxicity.
The spasmolytic effect was determined in vitro on the guinea pig colon, using the experimental arrangement according to R. Magnus, Pflugers Archiv, 102, pp. 123 (1904). Acetylcholine was taken to induce spasms, the substance for comparison was atropinesulfate. The spasticum was administered one minute before the administration of the spasmolytic substance, and the spasmolytic was allowed to take effect for 1 minute.

Series [1] can be described thus: acute toxicity after peroral administration to fasted white mice. Format: in vivo. The note with it: in vivo, po, mouse, observation period 14 days, read-out: LD50 peroral mgm/kg mouse. As for the experimental part: (§2) The acute toxicity was determined after peroral administration of the test substance to fasted white mice with a body weight of 18 to 20 gm. The observation period was 14 days. For each dosage a group of six mice was used.

In the next series the test system is white mice. Described as above. Format: in vivo. To be noted: mouse, six mice per dosage, at the LD50 dose. As for the experimental part: as §2
Another series relates to stress ulcers in rats. Nature of the series: inhibiting effect on the formation of stress ulcers in rats (Takagi and Okabe), peroral. Format: in vivo. To be noted: po, rat; for inhibition in vivo at 12.5 mg/kg: 12.5 mgm/kg, read-out: Ulcer inhibition in % (rat) after peroral administration of 12.5 mgm/kg; for inhibition in vivo at 25 mg/kg: 25 mgm/kg, read-out: Ulcer inhibition in % (rat) after peroral administration of 25 mgm/kg; for inhibition in vivo at 50 mg/kg: 50 mgm/kg, read-out: Ulcer inhibition in % (rat) after peroral administration of 50 mgm/kg. Here is the method: as §1
The inhibiting effect on the formation of stress ulcers in rats was determined according to the method of K. Takagi and S. Okabe, Jap.Journ.Pharmac. 18,pp. 9 to 18 (1968). Fed female rats with a body weight between 220 and 260 gm were individually put into small wire cages and were subsequently kept vertically submerged in a water bath which was kept constant at a temperature of 23° C. for 16 hours, so that only the heads and the breastbones of the animals were above the water surface. The test compounds were administered perorally 5 to 10 minutes before. With each substance five animals were treated. 1 ml of a 0.9% physiological sodium chloride solution or 1 ml of a 1% tylose solution was administered to the control animals in the same way. After 18 hours the animals were killed by an overdose of ethyl chloride, the stomachs were excised, cut along the big curvature and spread on a cork plate. The evaluation was carried out according to the methods of Marazzi-Uberti and Turba, Med. Exp. 4, pp. 284 to 292 (1961), and Takagi and Okabe (supra)

`CC1CN(C)CCN1CC(=O)N1c2ccccc2C(=O)Nc2cccnc21.Cl` (stereo not drawn) [F, 5,11-Dihydro-11-[(2,4-dimethyl-1-piperazinyl)acetyl]-6H-pyrido-[2,3-b][1,4]benzodiazepin-6-one-hydrochloride]: the “Spasmolysis (acetylcholine) in respect to Atropine = 1” value (“Spasmolysis (acetylcholine)” for short) in the series on guinea pig colon was 1/130. Further, the LD50 at 336 h in series [1] was greater than 3000 mg/kg. Further, in the series with white mice, the “number of animals that died” value is recorded as “++ (means, 1 of 6 animals died)”. In the series with stress ulcers in rats, the inhibition in vivo at 12.5 mg/kg is 84%, the inhibition in vivo at 25 mg/kg was 90% and the inhibition in vivo at 50 mg/kg was 95%.
As to `CC(C)=CCN1CCN(CC(=O)N2c3ccccc3C(=O)Nc3cccnc32)CC1.Cl.Cl` [B, 5,11-Dihydro-11-{[4-(3-methyl-but-2-enyl)-1-piperazinyl]acetyl}-6H-pyrido[2,3-b][1,4]benzodiazepin-6-one dihydrochloride], the “Spasmolysis (acetylcholine)” value in the series on guinea pig colon is listed as 1/200. Moreover, the LD50 at 336 h in series [1] is greater than 1500 mg/kg. Also, in the series on white mice, the “number of animals that died” value is “+ (means, 0 of 6 animals died)”. In addition, in the series with stress ulcers in rats, the inhibition in vivo at 12.5 mg/kg was 52%, the inhibition in vivo at 25 mg/kg was 63% and the inhibition in vivo at 50 mg/kg was determined as 84%.
Consider `O=C1Nc2cccnc2N(C(=O)CN2CCN(CC=Cc3ccccc3)CC2)c2ccccc21` [H, 11-[(4-Cinnamyl-1-piperazinyl)acetyl]-5,11-dihydro-6H-pyrido-[2,3-b][1,4]benzodiazepin-6-one], for which the “Spasmolysis (acetylcholine)” value with guinea pig colon was 1/700. Further, the LD50 at 336 h in series [1] is roughly 3000 mg/kg. In addition, the “number of animals that died” value with white mice was “++++ (means, 4 of 6 animals died)”. In addition, in the series on stress ulcers in rats, the inhibition in vivo at 12.5 mg/kg was 53%, the inhibition in vivo at 25 mg/kg came to 69% and the inhibition in vivo at 50 mg/kg was 95%.
In the case of `CN1C(=O)c2ccccc2N(C(=O)CN2CCN(Cc3ccc4c(c3)OCO4)CC2)c2ncccc21` [G, 5,11-Dihydro-5-methyl-11-{[4-(3,4methylenedioxy-benzyl)-1-piperazinyl]acetyl}-6H-pyrido[2,3-b][1,4]benzodiazepin-6-one], in the series with guinea pig colon, the “Spasmolysis (acetylcholine)” value is 1/290. Besides, in series [1], the LD50 at 336 h was greater than 1500 mg/kg. Besides, the “number of animals that died” value with white mice is on record as “+++ (means, 2 of 6 animals died)”. In the series with stress ulcers in rats, the inhibition in vivo at 12.5 mg/kg amounted to 21%, the inhibition in vivo at 25 mg/kg stood at 58% and the inhibition in vivo at 50 mg/kg was determined as 90%.
Consider `O=C1Nc2cccnc2N(C(=O)CN2CCN(CC34CC5CC(CC(C5)C3)C4)CC2)c2ccccc21` [D, 11-{[4-(1-Adamantyl-methyl)-1-piperazinyl]acetyl}-5,11-dihydro-6-H-pyrido[2,3-b][1,4]benzodiazepin-6-one], for which, in the series on guinea pig colon, the “Spasmolysis (acetylcholine)” value is 1/86. The LD50 at 336 h in series [1] was greater than 3000 mg/kg. For the same compound, the “number of animals that died” value in the series with white mice is on record as “+ (means, 0 of 6 animals died)”. Further, in the series with stress ulcers in rats, the inhibition in vivo at 12.5 mg/kg worked out at 26%, the inhibition in vivo at 25 mg/kg was determined as 47% and the inhibition in vivo at 50 mg/kg came to 79%.
`O=C1Nc2cccnc2N(C(=O)CN2CCN(Cc3ccc4c(c3)OCO4)CC2)c2ccccc21` [E, 5,11-Dihydro-11-{[4-(3,4-methylenedioxy-benzyl)-1-piperazinyl]-acetyl}-6H-pyrido[2,3-b][1,4]benzodiazepin-6-one]: the “Spasmolysis (acetylcholine)” value with guinea pig colon is on record as 1/78. In addition, the LD50 at 336 h in series [1] is greater than 3000 mg/kg. In addition, the “number of animals that died” value with white mice is “+++ (means, 2 of 6 animals died)”. In the series with stress ulcers in rats, the inhibition in vivo at 12.5 mg/kg came to 37%, the inhibition in vivo at 25 mg/kg turned out to be 73% and the inhibition in vivo at 50 mg/kg is 95%.
Consider `C=C(C)CN1CCN(CC(=O)N2c3ccccc3C(=O)Nc3cccnc32)CC1` [A, 5,11-Dihydro-11-{[4-(2-methyl-allyl)-1-piperazinyl]acetyl}-6H-pyrido[2,3-b][1,4]benzodiazepin-6-one], for which, in the series with guinea pig colon, the “Spasmolysis (acetylcholine)” value is listed as 1/330. Moreover, the LD50 at 336 h in series [1] is greater than 3000 mg/kg. For the same compound, the “number of animals that died” value in the series on white mice is “+ (means, 0 of 6 animals died)”. In the series with stress ulcers in rats, the inhibition in vivo at 12.5 mg/kg worked out at 32%, the inhibition in vivo at 25 mg/kg came to 52% and the inhibition in vivo at 50 mg/kg is 90%.
For `CC(C)(C)CN1CCN(CC(=O)N2c3ccccc3C(=O)Nc3cccnc32)CC1` [C, 5,11-Dihydro-11-{[4-(2,2-dimethyl-propyl)-1-piperazinyl]acetyl}-6H-pyrido[2,3-b][1,4]benzodiazepin-6-one], in the series on guinea pig colon, the “Spasmolysis (acetylcholine)” value was 1/70. In series [1], the LD50 at 336 h is greater than 1500 mg/kg. Further, in the series on white mice, the “number of animals that died” value is given as “+ (means, 0 of 6 animals died)”. Further, in the series with stress ulcers in rats, the inhibition in vivo at 12.5 mg/kg was determined as 39%, the inhibition in vivo at 25 mg/kg is 61% and the inhibition in vivo at 50 mg/kg is 95%.
